# Columns and labels:
# ERBB2 = conditions: cited from earlier work
# [1] = tested on: human airway microvasculature endothelial cells; experiment: Endothelial cell activation assessed by expression of Vcam1 (CD106); format: cell-based; conditions: IL-13 challenge of human lung endothelial cells
# From the text: Given the robust inflammatory response triggered by xenografts of COPD clone libraries, the inventors asked if this inflammatory activity was a function of one or more of the constituent clone types. Using pathway enrichment analysis algorithms for the gene expression profiles of the four clone types, the multiple inflammatory pathways highlighted in clones of Cluster 4 was striking including Antigen Presentation, Interferon Signaling, Graft-vs-Host responses, and Dendritic Cell Maturation among others, and their relative absence from clones of Clusters 1, 2, and 3 (FIG. 5A; FIG. 12A). The inventors tested media conditioned by clones of Clusters 1-4 for their ability to trigger phase I and II activation of human airway microvasculature endothelial cells, an essential step in leukocyte recruitment (Filippi, 2016). […] In this same assay media conditioned by Cluster 2 (GCM) or Cluster 3 (SCM) clones, respectively, yielded 4- and 10-fold inductions of VCAM1, and while media from Cluster 4 (iSCM) clones induced Vcam1 by 60-fold (FIG. 12B).
# STAT3 = STAT3 (Homo sapiens, UniProt P40763); conditions: cited from earlier work
# Sequence of STAT3 (P40763 whole entry): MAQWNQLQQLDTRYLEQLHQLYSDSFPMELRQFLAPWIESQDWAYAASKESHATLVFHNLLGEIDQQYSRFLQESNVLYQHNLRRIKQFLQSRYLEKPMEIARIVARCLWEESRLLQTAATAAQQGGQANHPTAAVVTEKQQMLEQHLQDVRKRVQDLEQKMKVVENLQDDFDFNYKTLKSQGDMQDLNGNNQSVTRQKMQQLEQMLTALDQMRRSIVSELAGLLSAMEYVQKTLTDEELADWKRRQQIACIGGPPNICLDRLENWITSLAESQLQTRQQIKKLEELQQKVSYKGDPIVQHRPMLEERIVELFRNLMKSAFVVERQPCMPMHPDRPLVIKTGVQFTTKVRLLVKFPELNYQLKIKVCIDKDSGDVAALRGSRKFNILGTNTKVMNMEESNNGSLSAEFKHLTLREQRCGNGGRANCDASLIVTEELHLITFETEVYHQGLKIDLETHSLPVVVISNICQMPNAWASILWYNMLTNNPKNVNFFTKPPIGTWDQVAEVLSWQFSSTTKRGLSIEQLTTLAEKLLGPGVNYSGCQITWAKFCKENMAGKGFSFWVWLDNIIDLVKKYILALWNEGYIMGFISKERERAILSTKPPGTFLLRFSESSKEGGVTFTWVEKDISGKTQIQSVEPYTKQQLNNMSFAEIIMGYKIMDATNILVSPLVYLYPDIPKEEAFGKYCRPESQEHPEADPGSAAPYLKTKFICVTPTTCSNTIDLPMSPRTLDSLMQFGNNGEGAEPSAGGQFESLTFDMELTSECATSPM
molecule,measurement,setting,value
C=CC(=O)Nc1cccc(Sc2nc(Nc3ccc(N4CCN(C)CC4)cc3)ncc2Cl)c1 [WZ8040],inhibition of ERBB2 phosphorylation,ERBB2,does not inhibit
IL-13: Human IL-13 Recombinant Protein,induction of Vcam1,[1],30 fold
O=[N+]([O-])c1ccc2c(c1)S(=O)(=O)C=C2 [Stattic],IC50,"STAT3; cell-free assays, read-out: IC50 of STAT3 activation and nuclear translocation",5.1 µM
same,selectivity over STAT1,STAT3,highly selectivity over STAT1

# From patent publication US20210401987A1, “METHODS AND COMPOSITIONS FOR TREATING INFLAMMATORY AND FIBROTIC PULMONARY DISORDERS” (University of Houston System, priority 2020, published 2021)
